The results in this text go back to the OligoGym collection.

This series concerns the target HBV. To be noted: ASO.

“And” between values parts separate entries of the source, which are not always exact repeats. Equal values may be shown once. HELM strings list units from the 5' end as sugar, base in round brackets, then linkage (d deoxyribose, r ribose, m 2'-O-methyl, p phosphodiester). Methylation of C is not given here. [moe] = 2'-O-(2-methoxyethyl) (MOE); [cEt] = constrained ethyl (cEt); [sp] = phosphorothioate linkage

“RNA1{[moe](G)[sp].[moe](A)[sp].[moe](T)[sp].[moe](G)[sp].[moe](A)[sp].[moe](G)[sp].d(G)[sp].d(C)[sp].d(A)[sp].d(T)[sp].d(A)[sp].d(G)[sp].d(C)[sp].d(A)[sp].d(G)[sp].[moe](C)[sp].[moe](A)}$$$$V2.0”: under “HepG2, 0.07 µM”, the target mRNA inhibition is 63% and 44%.
Still for that read-out and setting: the figure for “RNA1{[moe](G)[sp].[moe](A)[sp].[moe](T)[sp].[moe](G)[sp].d(A)[sp].d(G)[sp].d(G)[sp].d(C)[sp].d(A)[sp].d(T)[sp].d(A)[sp].d(G)[sp].d(C)[sp].[moe](A)[sp].[moe](G)[sp].[moe](C)[sp].[moe](A)}$$$$V2.0” is 0% and 13%; for “RNA1{[moe](G)[sp].[moe](A)[sp].[moe](T)[sp].d(G)[sp].d(A)[sp].d(G)[sp].d(G)[sp].d(C)[sp].d(A)[sp].d(T)[sp].d(A)[sp].d(G)[sp].[moe](C)[sp].[moe](A)[sp].[moe](G)[sp].[moe](C)[sp].[moe](A)}$$$$V2.0” it is 51%.
On the same count and under the same terms, next, “RNA1{[moe](G)[sp].[moe](A)[sp].[moe](T)[sp].d(G)[sp].d(A)[sp].d(G)[sp].d(G)[sp].d(C)[sp].d(A)[sp].d(T)[sp].d(A)[sp].d(G)[sp].[moe](C)[sp].[moe](A)[sp].[moe](G)[sp].[moe](C)}$$$$V2.0”: 39% and 38%; “RNA1{[moe](G)[sp].[moe](A)[sp].d(A)[sp].d(C)[sp].d(C)[sp].d(A)[sp].d(C)[sp].d(T)[sp].d(G)[sp].d(A)[sp].d(A)[sp].[moe](C)[sp].[moe](A)[sp].[moe](A)[sp].[moe](A)[sp].[moe](T)}$$$$V2.0”: 37% and 25%.
Regarding “RNA1{[moe](G)[sp].[moe](A)[sp].d(A)[sp].d(C)[sp].d(T)[sp].d(G)[sp].d(G)[sp].d(A)[sp].d(G)[sp].d(C)[sp].d(C)[sp].[moe](A)[sp].[moe](C)[sp].[moe](C)[sp].[moe](A)[sp].[moe](G)[sp].[moe](C)}$$$$V2.0”, the target mRNA inhibition (HepG2, 0.07 µM) was 70% and 69%.
On the same count and under the same terms, the figure for “RNA1{[moe](G)[sp].[moe](A)[sp].d(A)[sp].d(G)[sp].d(C)[sp].d(G)[sp].d(A)[sp].d(A)[sp].d(G)[sp].d(T)[sp].d(G)[sp].[moe](C)[sp].[moe](A)[sp].[moe](C)[sp].[moe](A)[sp].[moe](C)[sp].[moe](G)}$$$$V2.0” is 79% and 74%.
The same measure, in the same setting: next, “RNA1{[moe](G)[sp].[moe](A)[sp].d(G)[sp].d(A)[sp].d(A)[sp].d(G)[sp].d(T)[sp].d(C)[sp].d(C)[sp].d(A)[sp].d(C)[sp].[moe](C)[sp].[moe](A)[sp].[moe](C)[sp].[moe](G)[sp].[moe](A)[sp].[moe](G)}$$$$V2.0”: 35% and 21%.
On the same count and under the same terms, the figure for “RNA1{[moe](G)[sp].[moe](A)[sp].d(G)[sp].d(G)[sp].d(C)[sp].d(A)[sp].d(T)[sp].d(A)[sp].d(G)[sp].d(C)[sp].d(A)[sp].[moe](G)[sp].[moe](C)[sp].[moe](A)[sp].[moe](G)[sp].[moe](G)[sp].[moe](A)}$$$$V2.0” is 64% and 47%; for “RNA1{[moe](G)[sp].[moe](A)[sp].d(G)[sp].d(T)[sp].d(T)[sp].d(C)[sp].d(C)[sp].d(G)[sp].d(C)[sp].d(A)[sp].d(G)[sp].[moe](T)[sp].[moe](A)[sp].[moe](T)[sp].[moe](G)[sp].[moe](G)[sp].[moe](A)}$$$$V2.0” it is 78% and 66%.
Take “RNA1{[moe](G)[sp].[moe](A)[sp].d(T)[sp].d(G)[sp].d(A)[sp].d(G)[sp].d(G)[sp].d(C)[sp].d(A)[sp].d(T)[sp].d(A)[sp].[moe](G)[sp].[moe](C)[sp].[moe](A)[sp].[moe](G)[sp].[moe](C)[sp].[moe](A)}$$$$V2.0”: where the note is “HepG2, 0.07 µM”, the target mRNA inhibition was 72% and 65%.
In the case of “RNA1{[moe](G)[sp].[moe](A)[sp].d(T)[sp].d(G)[sp].d(A)[sp].d(G)[sp].d(G)[sp].d(C)[sp].d(A)[sp].d(T)[sp].d(A)[sp].[moe](G)[sp].[moe](C)[sp].[moe](A)[sp].[moe](G)[sp].[moe](C)}$$$$V2.0”, the target mRNA inhibition (HepG2, 0.07 µM) was 57% and 33%.
The same measure, in the same setting: next, “RNA1{[moe](G)[sp].[moe](C)[sp].[moe](A)[sp].[moe](G)[sp].[moe](A)[sp].d(G)[sp].d(G)[sp].d(T)[sp].d(G)[sp].d(A)[sp].d(A)[sp].d(G)[sp].d(C)[sp].d(G)[sp].[moe](A)[sp].[moe](A)}$$$$V2.0”: 63% and 58%; “RNA1{[moe](G)[sp].[moe](C)[sp].[moe](A)[sp].[moe](G)[sp].d(A)[sp].d(G)[sp].d(G)[sp].d(T)[sp].d(G)[sp].d(A)[sp].d(A)[sp].d(G)[sp].d(C)[sp].[moe](G)[sp].[moe](A)[sp].[moe](A)}$$$$V2.0”: 60%; “RNA1{[moe](G)[sp].[moe](C)[sp].[moe](A)[sp].[moe](T)[sp].d(A)[sp].d(G)[sp].d(C)[sp].d(A)[sp].d(G)[sp].d(C)[sp].d(A)[sp].d(G)[sp].d(G)[sp].[moe](A)[sp].[moe](T)[sp].[moe](G)}$$$$V2.0”: 44% and 56%.
As to “RNA1{[moe](G)[sp].[moe](C)[sp].[moe](A)[sp].d(C)[sp].d(T)[sp].d(A)[sp].d(G)[sp].d(T)[sp].d(A)[sp].d(A)[sp].d(A)[sp].d(C)[sp].[moe](T)[sp].[moe](G)[sp].[moe](A)[sp].[moe](G)[sp].[moe](C)}$$$$V2.0”, the target mRNA inhibition (HepG2, 0.07 µM) is 74% and 68%.
Consider “RNA1{[moe](G)[sp].[moe](C)[sp].[moe](A)[sp].d(G)[sp].d(A)[sp].d(G)[sp].d(G)[sp].d(T)[sp].d(G)[sp].d(A)[sp].d(A)[sp].d(G)[sp].[moe](C)[sp].[moe](G)[sp].[moe](A)[sp].[moe](A)[sp].[moe](G)}$$$$V2.0”, for which the target mRNA inhibition (HepG2, 0.07 µM) is 75% and 66%.
For “RNA1{[moe](G)[sp].[moe](C)[sp].[moe](A)[sp].d(G)[sp].d(T)[sp].d(A)[sp].d(T)[sp].d(G)[sp].d(G)[sp].d(A)[sp].d(T)[sp].d(C)[sp].d(G)[sp].[cEt](G)[sp].[cEt](C)[sp].[cEt](A)}$$$$V2.0”, the target mRNA inhibition is 4% (HepG2, 0.0092593 µM); 36% (HepG2, 0.0277778 µM); 74% and 85% (HepG2, 0.07 µM); 58% (HepG2, 0.0833333 µM); 84% (HepG2, 0.25 µM).
On to “RNA1{[moe](G)[sp].[moe](C)[sp].[moe](A)[sp].d(T)[sp].d(A)[sp].d(G)[sp].d(C)[sp].d(A)[sp].d(G)[sp].d(C)[sp].d(A)[sp].d(G)[sp].[moe](G)[sp].[moe](A)[sp].[moe](T)[sp].[moe](G)}$$$$V2.0”, for which, where the note is “HepG2, 0.07 µM”, the target mRNA inhibition was 60% and 53%.
On to “RNA1{[moe](G)[sp].[moe](C)[sp].[moe](A)[sp].d(T)[sp].d(A)[sp].d(G)[sp].d(C)[sp].d(A)[sp].d(G)[sp].d(C)[sp].d(A)[sp].d(G)[sp].d(G)[sp].[cEt](A)[sp].[cEt](T)[sp].[cEt](G)}$$$$V2.0”, for which the target mRNA inhibition (HepG2, 0.07 µM) is 67% and 76%.
With “RNA1{[moe](G)[sp].[moe](G)[sp].[moe](A)[sp].d(G)[sp].d(T)[sp].d(T)[sp].d(C)[sp].d(C)[sp].d(G)[sp].d(C)[sp].d(A)[sp].d(G)[sp].d(T)[sp].[cEt](A)[sp].[cEt](T)[sp].[cEt](G)}$$$$V2.0”, the target mRNA inhibition by setting is: (HepG2, 0.0092593 µM) 0%; (HepG2, 0.0277778 µM) 25%; (HepG2, 0.07 µM) 74% and 82%; (HepG2, 0.0833333 µM) 53%; (HepG2, 0.25 µM) 72%.
